Experiments:
[1] = refractive index (Na D-line) (dimensionless); xn = mol fraction of the nth substance listed; conditions: 100 kPa, Liquid, Standard Abbe refractometry
[2] = xn = mol fraction of the nth substance listed; conditions: 100 kPa, Liquid; for speed of sound: Frequency=3 MHz, Sing-around technique in a fixed-path interferometer; for mass density: Vibrating tube method

CCCCCCCCN1CCCC1=O [N-octyl-2-pyrrolidone] + CCCCn1cc[n+](C)c1.F[B-](F)(F)F
Conditions	mass density, 298.15 K [kg/m3]	refractive index, 298.15 K	refractive index, 303.15 K	refractive index, 308.15 K	refractive index, 313.15 K	refractive index, 318.15 K	refractive index, 323.15 K	speed of sound, 298.15 K [m/s]	speed of sound, 303.15 K [m/s]
[1], x2 = 0	–	1.46346	1.46152	1.45955	1.45761	1.45564	1.45367	–	–
[1], x2 = 0.1084	–	1.46095	1.45882	1.45675	1.45482	1.45292	1.45088	–	–
[1], x2 = 0.196	–	1.45803	1.45622	1.45433	1.45243	1.45054	1.44862	–	–
[1], x2 = 0.3023	–	1.45399	1.45226	1.45051	1.44871	1.44692	1.44512	–	–
[1], x2 = 0.4087	–	1.44986	1.4482	1.44653	1.44484	1.44312	1.44146	–	–
[1], x2 = 0.5064	–	1.44556	1.44392	1.4423	1.44059	1.43894	1.43731	–	–
[1], x2 = 0.6027	–	1.44155	1.43996	1.43842	1.43681	1.43513	1.43346	–	–
[1], x2 = 0.6981	–	1.43713	1.43564	1.43416	1.43266	1.43111	1.42954	–	–
[1], x2 = 0.7966	–	1.43209	1.4307	1.42923	1.42777	1.4263	1.42478	–	–
[1], x2 = 0.8978	–	1.42695	1.42526	1.42379	1.4223	1.4208	1.41935	–	–
[2], x2 = 0	918.45	–	–	–	–	–	–	1450.2	1432.6
[2], x2 = 0.1084	945.54	–	–	–	–	–	–	1454.9	1438.3
[2], x2 = 0.196	965.52	–	–	–	–	–	–	1457.4	1441.3
[2], x2 = 0.3023	991.51	–	–	–	–	–	–	1461.3	1445.3
[2], x2 = 0.4087	1020.1	–	–	–	–	–	–	1467.5	1452.1
[2], x2 = 0.5064	1045.47	–	–	–	–	–	–	1474	1459.2
[2], x2 = 0.6027	1074.31	–	–	–	–	–	–	1485.8	1471.7
[2], x2 = 0.6981	1103.56	–	–	–	–	–	–	1499.9	1486
[2], x2 = 0.7966	1133.07	–	–	–	–	–	–	1517.6	1504.5
[2], x2 = 0.8978	1164.87	–	–	–	–	–	–	1539.8	1527.3

From the NIST ThermoML archive (doi:10.1016/j.jct.2015.06.005)
